Test results taken from paper PMC8955485, “Journey on VX-809-Based Hybrid Derivatives towards Drug-like F508del-CFTR Correctors: From Molecular Modeling to Chemical Synthesis and Biological Assays” (Pharmaceuticals, 2022).
pEC50: −log10 of the molar value.

How the values were obtained:
F508del-CFTR [1] = target: T1, F508del-CFTR (Homo sapiens, UniProt P13569, DEL508-508); test: HS-YFP functional assay for F508del-CFTR correctors in CFBE41o- cells; format: cell-based; design: expressed in transfected cells; settings: CFBE41o- cells stably expressing F508del-CFTR and HS-YFP; 24 h incubation; stimulation with forskolin 20 µM plus VX-770 1 µM
T1 sequence (P13569 with tags, fused parts or gaps DEL508-508): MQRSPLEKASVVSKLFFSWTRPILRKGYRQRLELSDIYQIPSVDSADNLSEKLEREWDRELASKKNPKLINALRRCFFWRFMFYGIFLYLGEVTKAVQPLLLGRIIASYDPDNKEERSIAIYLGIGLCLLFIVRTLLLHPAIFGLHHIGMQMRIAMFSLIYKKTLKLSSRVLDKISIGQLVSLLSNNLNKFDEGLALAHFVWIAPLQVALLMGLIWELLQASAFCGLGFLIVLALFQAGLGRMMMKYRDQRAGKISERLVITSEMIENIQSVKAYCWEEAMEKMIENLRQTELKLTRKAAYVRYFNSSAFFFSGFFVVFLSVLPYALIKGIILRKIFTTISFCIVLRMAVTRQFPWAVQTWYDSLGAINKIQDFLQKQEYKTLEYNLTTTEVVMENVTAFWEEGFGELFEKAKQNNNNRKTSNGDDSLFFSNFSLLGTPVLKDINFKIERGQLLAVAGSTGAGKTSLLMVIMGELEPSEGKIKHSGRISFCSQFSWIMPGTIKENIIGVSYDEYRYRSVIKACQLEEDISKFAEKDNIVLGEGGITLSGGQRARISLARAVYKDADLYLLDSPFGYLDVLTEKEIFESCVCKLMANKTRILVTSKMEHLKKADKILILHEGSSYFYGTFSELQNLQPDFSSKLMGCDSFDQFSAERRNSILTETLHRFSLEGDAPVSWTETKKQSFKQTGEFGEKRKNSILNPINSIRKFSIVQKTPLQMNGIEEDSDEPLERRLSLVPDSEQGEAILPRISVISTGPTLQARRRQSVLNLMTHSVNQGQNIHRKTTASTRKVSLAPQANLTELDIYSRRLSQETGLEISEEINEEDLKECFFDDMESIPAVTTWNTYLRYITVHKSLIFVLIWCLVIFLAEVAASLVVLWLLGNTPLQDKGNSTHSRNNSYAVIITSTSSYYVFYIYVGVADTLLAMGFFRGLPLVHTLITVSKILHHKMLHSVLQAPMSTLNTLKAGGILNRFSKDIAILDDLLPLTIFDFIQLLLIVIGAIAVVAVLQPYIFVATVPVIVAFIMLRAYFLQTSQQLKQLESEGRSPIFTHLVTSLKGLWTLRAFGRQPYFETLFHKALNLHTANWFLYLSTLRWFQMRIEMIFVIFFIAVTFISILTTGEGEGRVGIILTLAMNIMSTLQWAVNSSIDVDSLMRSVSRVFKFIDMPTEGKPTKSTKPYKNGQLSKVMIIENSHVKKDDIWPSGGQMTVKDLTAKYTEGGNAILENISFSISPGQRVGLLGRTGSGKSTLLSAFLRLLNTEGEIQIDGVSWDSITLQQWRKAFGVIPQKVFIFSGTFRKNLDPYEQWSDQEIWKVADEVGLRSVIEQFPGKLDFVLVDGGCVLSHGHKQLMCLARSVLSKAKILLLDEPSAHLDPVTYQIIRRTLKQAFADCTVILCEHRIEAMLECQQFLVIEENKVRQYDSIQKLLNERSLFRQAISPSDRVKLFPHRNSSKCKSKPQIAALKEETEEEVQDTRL
Protocol: The ability of these compounds to correct the basic defects related to F508del mutant was evaluated on immortalized CFBE41o-bronchial epithelial cells stably expressing F508del-CFTR and the halide sensitive yellow fluorescent protein (HS-YFP).
The measurements of the rate of HS-YFP quenching caused by iodide influx allowed us to determine the activity of F508del-CFTR, after incubation with the compounds, as cited. Activity was then compared to that of cells treated with the corrector VX-809 (1 µM) or with vehicle alone (DMSO).
Within the novel third series of hybrids herein proposed, based on their potency and efficacy in terms of CFTR rescue, we selected six compounds and determined the dose–response relationships (Figure 6). To this aim, F508del-CFTR expressing CFBE41o-cells were treated for 24 h with our hybrids 9b, 9f, 9g, 9h, 9j, and 9y and then mutant CFTR activity was measured by using the YFP functional assay (see Materials and Methods section for details).
Immortalized bronchial epithelial CFBE41o-cells with stable co-expression of the halide-sensitive yellow fluorescent protein (HS-YFP) and of F508del-CFTR were cultured using MEM medium supplemented with 10% fetal calf serum, 100 U/mL penicillin, 2 mM L-glutamine, and […] streptomycin.
CFBE41o-cells co-expressing mutants CFTR and HS-YFP were plated (50,000 cells/well) on clear-bottom 96-well black microplates (Corning Life Sciences, Acton, MA) and grown at 37 °C in 5% CO2 for 24 h. For the corrector assay, CFBE41o-cells were treated for further 24 h with compounds as indicated. The following day, prior to the assay, the culture medium was removed and cells were stimulated for 30 min at 37 °C with 60 µL PBS (containing 137 mM NaCl, 2.7 mM KCl, 8.1 mM Na2HPO4, 1.5 mM KH2PO4, 1mM CaCl2, and 0.5 mM MgCl2) plus forskolin (20 µM) and VX-770 (1 µM).
Microplates containing CFBE41o-cells were then transferred to a plate reader (FluoStar Galaxy; BMG Labtech, Offenburg, Germany) equipped with excitation (HQ500/20X: 500 ± 10 nm) and emission (HQ535/30M: 535 ± 15 nm) filters for YFP (Chroma Technology, Brattleboro, VT, USA). During the assay fluorescence was measured continuously for 14 s with 2 s before and 12 s after injection of an iodide containing solution (165 µL of a modified PBS containing I^- instead of Cl^-; final I^- concentration in the well: 100 mM).
Fluorescence data were normalized for the initial value and fluorescence quenching rate following I^- influx, were determined by fitting the final 10 s of data for each well with an exponential function to extrapolate initial slope (dF/dt).
To evaluate the dose–response relationships, activity slopes obtained for each compound at the different concentrations were fitted with the Hill equation using the Igor software (WaveMetrics) to extrapolate EC50, maximal effect, and Hill coefficient.

F508del-CFTR [2] = target: T1, F508del-CFTR; test: Western blot analysis of CFTR expression pattern (C band/B band ratio); format: cell-based; design: expressed in transfected cells; settings: F508del-CFTR/HS-YFP CFBE41o- cells; 24 h; 50 nM and 1 µM; versus DMSO
From the text: We then biochemically estimated the rescue of the trafficking defect by analyzing the electrophoretic mobility of mutant CFTR protein. In Western blots, CFTR protein can be detected as two bands B and C, of approximately 150 and 170 kDa, respectively. Band B corresponds to immature, partially glycosylated CFTR, while band C corresponds to the mature fully glycosylated CFTR. In cells expressing wild-type CFTR protein, the prevalent form is band C, while the main form in cells expressing F508del-CFTR is band B, in agreement with the severe trafficking defect caused by this mutation (Figure 8). To estimate the effect of our molecules on CFTR expression pattern, we treated F508del-CFTR/HS-YFP expressing CFBE41o-cells for 24 h with test compounds 9b, 9g, and 9j (50 nM and 1 µM) VX-809 as a positive control or DMSO as a vehicle alone.
The next day, cells were lysed and the obtained lysates were subjected to SDS-PAGE followed by Western blotting (Figure 8A). Western blot images were analyzed with ImageJ software. CFTR bands, analyzed as ROI, were quantified in each lane after normalization for GAPDH as a loading control. […]
Supernatant protein concentration was calculated using the BCA assay (Euroclone, Milan, Italy). For each sample, 10 μg of total proteins was resolved in 4–20% gradient Criterion TGX precast gels, transferred to nitrocellulose membranes (using a Trans-Blot Turbo system; Bio-Rad, Hercules, CA, USA), and analyzed by Western blotting. Proteins were detected using the antibodies described above and subsequently visualized by chemiluminescence using the SuperSignal West Femto Substrate (Thermo Fisher Scientific, Waltham, MA, USA). […] Images were analyzed with ImageJ software (NIH). Bands were analyzed as ROI, normalized against the GAPDH loading control.
Figure 8 Biochemical analysis of the F508del-CFTR expression pattern: (A). […] Quantification of the C band/B band ratio in experiments as in (A). […]

Row | pEC50 (F508del-CFTR [1]) | C band/B band ratio (F508del-CFTR [2]) | Compound
1 | 7.48 | significant enhancement | COc1ccc(-c2nc(NC(=O)C3(c4ccc5c(c4)OCO5)CC3)sc2C(=O)c2ccc(N3CCCC3)cc2)cc1 [Compound 9g]
2 | 7.43 | significant enhancement | COc1cccc(-c2nc(NC(=O)C3(c4ccc5c(c4)OCO5)CC3)sc2C(=O)c2ccc(OC(F)(F)F)cc2)c1 [Compound 9j]
